Data reported in PubChem BioAssay (NCI).
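Growth conditions: 96-well plates. Treatment: test compound, 48 hours, 5 concentrations. Analysis: linear interpolation between bracketing concentrations; unreached endpoints set to highest concentration. Here, GI50 denotes the concentration required for 50% inhibition of growth. The concentration for full growth arrest is given as TGI.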

Key:
Assay in all cases: DTP human tumour cell line panel, 48 h
SNB-75 CNS = test system: SNB-75 CNS
SK-OV-3 ovarian = test system: SK-OV-3 ovarian
UACC-62 melanoma = test system: UACC-62 melanoma
CAKI-1 renal = test system: CAKI-1 renal
NCI-H226 lung = test system: NCI-H226 lung
KM12 colon = test system: KM12 colon
RXF 393 renal = test system: RXF 393 renal
M14 melanoma = test system: M14 melanoma
HCT-116 colon = test system: HCT-116 colon
HOP-62 NSCLC = test system: HOP-62 NSCLC
DMS 114 small cell lung = test system: DMS 114 small cell lung
HOP-18 NSCLC = test system: HOP-18 NSCLC
XF 498 CNS = test system: XF 498 CNS

## CCSc1nc(N2CCCCC2)c2cn[nH]c2n1
SNB-75 CNS
  GI50: 74.9 µM
  TGI: > 100 µM
SK-OV-3 ovarian
  GI50: > 100 µM
  TGI: > 100 µM
UACC-62 melanoma
  GI50: 18.8 µM
  TGI: 47.1 µM
CAKI-1 renal
  GI50: 19.8 µM
  TGI: 59.7 µM
NCI-H226 lung
  GI50: 15.3 µM
  TGI: 51.3 µM
KM12 colon
  GI50: 29 µM
  TGI: > 100 µM
RXF 393 renal
  GI50: 24.5 µM
  TGI: 92.4 µM

## CC(=O)NC(CCCCNC(=O)OC(C)(C)C)C(=O)O (stereo unspecified)
M14 melanoma
  TGI: > 100 µM
UACC-62 melanoma
  TGI: > 100 µM
HCT-116 colon
  TGI: > 100 µM
HOP-62 NSCLC
  TGI: > 100 µM
CAKI-1 renal
  TGI: > 100 µM

## CCN(CC)CCC(=O)c1ccccc1
M14 melanoma
  TGI: 31.5 µM
SNB-75 CNS
  TGI: 38.8 µM
DMS 114 small cell lung
  TGI: 41.8 µM
HCT-116 colon
  TGI: 31.8 µM
HOP-62 NSCLC
  TGI: > 100 µM
HOP-18 NSCLC
  TGI: 30.1 µM
NCI-H226 lung
  TGI: > 100 µM
KM12 colon
  TGI: > 100 µM
RXF 393 renal
  TGI: 34.7 µM

## O=C(O)/C=C/c1cnc[nH]1
SNB-75 CNS
  TGI: > 500 µM
SK-OV-3 ovarian
  TGI: > 500 µM
UACC-62 melanoma
  TGI: > 500 µM
DMS 114 small cell lung
  TGI: > 500 µM
HCT-116 colon
  TGI: > 500 µM
HOP-62 NSCLC
  TGI: > 500 µM
HOP-18 NSCLC
  TGI: > 500 µM
CAKI-1 renal
  TGI: > 500 µM
NCI-H226 lung
  TGI: > 500 µM
KM12 colon
  TGI: > 500 µM
XF 498 CNS
  TGI: > 500 µM
RXF 393 renal
  TGI: > 500 µM

## COc1cccc(C2C(C(=O)O)=C(CO)Oc3cc4c(cc32)OCO4)c1 (stereo unspecified)
M14 melanoma
  TGI: > 100 µM
SNB-75 CNS
  TGI: > 100 µM
SK-OV-3 ovarian
  TGI: > 100 µM
UACC-62 melanoma
  TGI: > 100 µM
DMS 114 small cell lung
  TGI: > 100 µM
HOP-18 NSCLC
  TGI: > 100 µM
CAKI-1 renal
  TGI: > 100 µM
NCI-H226 lung
  TGI: > 100 µM
XF 498 CNS
  TGI: 91.2 µM

## CCOc1ccc(N=Nc2ccc3oc(=O)c(/C(C)=N\NC(=O)CC(=O)Nc4ccc(Cl)cc4)cc3c2)cc1
SK-OV-3 ovarian
  TGI: 41.8 µM
UACC-62 melanoma
  TGI: 28.9 µM
DMS 114 small cell lung
  TGI: 42 µM
HCT-116 colon
  TGI: 31.5 µM
HOP-62 NSCLC
  TGI: 36.4 µM
CAKI-1 renal
  TGI: > 100 µM
NCI-H226 lung
  TGI: > 100 µM
KM12 colon
  TGI: 60.7 µM
XF 498 CNS
  TGI: 4.31 µM
RXF 393 renal
  TGI: 29.6 µM

## CCOC(=O)C1(C(=O)OCC)CSC1
M14 melanoma
  TGI: > 100 µM
SNB-75 CNS
  TGI: > 100 µM
SK-OV-3 ovarian
  TGI: > 100 µM
HCT-116 colon
  TGI: > 100 µM
NCI-H226 lung
  TGI: > 100 µM
KM12 colon
  TGI: > 100 µM
RXF 393 renal
  TGI: > 100 µM
